Measurements taken from PubChem BioAssay (NCI).
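Results reflect a 48-hour exposure of cells in 96-well plates to compound at five concentrations. TGI: total growth inhibition.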

Experiments:
Test in all cases: NCI-60 cell line screen, 48 h
[1] = test system: SK-OV-3 ovarian
[2] = test system: HOP-62 NSCLC
[3] = test system: OVCAR-3 ovarian
[4] = test system: HCC-2998 colon
[5] = test system: NCI-H460 lung
[6] = test system: MALME-3M melanoma
[7] = test system: KM12 colon
[8] = test system: COLO 205 colon
[9] = test system: OVCAR-8 ovarian
[10] = test system: HCT-15 colon
[11] = test system: HCT-116 colon
[12] = test system: NCI-H226 lung
[13] = test system: UO-31 renal
[14] = test system: M14 melanoma
[15] = test system: K-562 leukemia
[16] = test system: SK-MEL-2 melanoma
[17] = test system: SK-MEL-28 melanoma
[18] = test system: RXF 393 renal
[19] = test system: UACC-62 melanoma
[20] = test system: NCI-H23 lung

Measured: TGI

Nc1c(-c2ccccc2[N+](=O)[O-])nc2ccccn12
> 100 µM: all assays above

CCOC(=O)CCC(NC(=O)OCc1ccccc1)C(=O)NC(CCC(=O)OCC)C(=O)NNC(=O)OC(C)(C)C (stereo not given)
> 100 µM: all assays above
